Assay results published in PubChem BioAssay (NCI).
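All cell lines were grown in 96-well plates and treated with compound for 48 hours. GI50 is the concentration that inhibits growth by half. Definition used: TGI = concentration required for complete inhibition of growth.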

Legend:
Assay in all cases: NCI-60 cell line screen, 48 h
K-562 leukemia = test system: K-562 leukemia
EKVX NSCLC = test system: EKVX NSCLC
HCT-116 colon = test system: HCT-116 colon
HT29 colon = test system: HT29 colon
NCI/ADR-RES ovarian = test system: NCI/ADR-RES ovarian
OVCAR-4 ovarian = test system: OVCAR-4 ovarian
SF-268 CNS = test system: SF-268 CNS
A549 NSCLC = test system: A549 NSCLC
UACC-62 melanoma = test system: UACC-62 melanoma
NCI-H460 lung = test system: NCI-H460 lung
NCI-H226 lung = test system: NCI-H226 lung
SF-539 CNS = test system: SF-539 CNS
MOLT-4 leukemia = test system: MOLT-4 leukemia
SK-OV-3 ovarian = test system: SK-OV-3 ovarian
RPMI-8226 leukemia = test system: RPMI-8226 leukemia
SK-MEL-5 melanoma = test system: SK-MEL-5 melanoma
SW-620 colon = test system: SW-620 colon
HCC-2998 colon = test system: HCC-2998 colon
A498 renal = test system: A498 renal
RXF 393 renal = test system: RXF 393 renal
COLO 205 colon = test system: COLO 205 colon
MCF7 breast = test system: MCF7 breast
U251 CNS = test system: U251 CNS
HL-60(TB) leukemia = test system: HL-60(TB) leukemia
HOP-62 NSCLC = test system: HOP-62 NSCLC
SNB-19 CNS = test system: SNB-19 CNS
BT-549 breast = test system: BT-549 breast
SK-MEL-28 melanoma = test system: SK-MEL-28 melanoma
HOP-92 NSCLC = test system: HOP-92 NSCLC
MALME-3M melanoma = test system: MALME-3M melanoma
IGROV1 ovarian = test system: IGROV1 ovarian
M14 melanoma = test system: M14 melanoma
SF-295 CNS = test system: SF-295 CNS
NCI-H522 lung = test system: NCI-H522 lung
786-0 renal = test system: 786-0 renal
PC-3 prostate = test system: PC-3 prostate
ACHN renal = test system: ACHN renal
HS 578T breast = test system: HS 578T breast
MDA-MB-231 breast = test system: MDA-MB-231 breast
OVCAR-8 ovarian = test system: OVCAR-8 ovarian
UACC-257 melanoma = test system: UACC-257 melanoma
KM12 colon = test system: KM12 colon
MDA-MB-435 = test system: MDA-MB-435
OVCAR-5 ovarian = test system: OVCAR-5 ovarian
SNB-75 CNS = test system: SNB-75 CNS
SN12C renal = test system: SN12C renal
CAKI-1 renal = test system: CAKI-1 renal
UO-31 renal = test system: UO-31 renal
T-47D breast = test system: T-47D breast
SK-MEL-2 melanoma = test system: SK-MEL-2 melanoma
DU-145 prostate = test system: DU-145 prostate
TK-10 renal = test system: TK-10 renal
LOX IMVI melanoma = test system: LOX IMVI melanoma
SR leukemia = test system: SR leukemia

Compound: COc1cc(NC2=C(Cl)C(=O)c3nc(C)ccc3C2=O)cc(OC)c1
- GI50 (K-562 leukemia): 0.381 µM
- TGI (K-562 leukemia): > 100 µM
- GI50 (EKVX NSCLC): 1.6 µM
- TGI (EKVX NSCLC): 3.12 µM
- GI50 (HCT-116 colon): 1.53 µM
- TGI (HCT-116 colon): 2.88 µM
- GI50 (HT29 colon): 1.87 µM
- TGI (HT29 colon): 3.48 µM
- GI50 (NCI/ADR-RES ovarian): 1.81 µM
- TGI (NCI/ADR-RES ovarian): 4.47 µM
- GI50 (OVCAR-4 ovarian): 1.4 µM
- TGI (OVCAR-4 ovarian): 2.82 µM
- GI50 (SF-268 CNS): 3.25 µM
- TGI (SF-268 CNS): 14.4 µM
- GI50 (A549 NSCLC): 2.83 µM
- TGI (A549 NSCLC): 8.97 µM
- GI50 (UACC-62 melanoma): 1.77 µM
- TGI (UACC-62 melanoma): 3.42 µM
- GI50 (NCI-H460 lung): 2.68 µM
- TGI (NCI-H460 lung): 8.07 µM
- GI50 (NCI-H226 lung): 2.82 µM
- TGI (NCI-H226 lung): 8.35 µM
- GI50 (SF-539 CNS): 1.79 µM
- TGI (SF-539 CNS): 3.22 µM
- GI50 (MOLT-4 leukemia): 1.5 µM
- TGI (MOLT-4 leukemia): 7 µM
- GI50 (SK-OV-3 ovarian): 12.6 µM
- TGI (SK-OV-3 ovarian): 25.1 µM
- GI50 (RPMI-8226 leukemia): 1.79 µM
- TGI (RPMI-8226 leukemia): 5.19 µM
- GI50 (SK-MEL-5 melanoma): 1.62 µM
- TGI (SK-MEL-5 melanoma): 2.97 µM
- GI50 (SW-620 colon): 1.76 µM
- TGI (SW-620 colon): 3.47 µM
- GI50 (HCC-2998 colon): 1.81 µM
- TGI (HCC-2998 colon): 3.26 µM
- GI50 (A498 renal): 2.35 µM
- TGI (A498 renal): 11.4 µM
- GI50 (RXF 393 renal): 1.63 µM
- TGI (RXF 393 renal): 2.99 µM
- GI50 (COLO 205 colon): 1.68 µM
- TGI (COLO 205 colon): 3.08 µM
- GI50 (MCF7 breast): 1.82 µM
- TGI (MCF7 breast): 5.33 µM
- GI50 (U251 CNS): 1.92 µM
- TGI (U251 CNS): 4.44 µM
- GI50 (HL-60(TB) leukemia): 1.38 µM
- TGI (HL-60(TB) leukemia): 4.65 µM
- GI50 (HOP-62 NSCLC): 4.26 µM
- TGI (HOP-62 NSCLC): 14.1 µM
- GI50 (SNB-19 CNS): 5.82 µM
- TGI (SNB-19 CNS): 18.8 µM
- GI50 (BT-549 breast): 1.97 µM
- TGI (BT-549 breast): 3.4 µM
- GI50 (SK-MEL-28 melanoma): 1.79 µM
- TGI (SK-MEL-28 melanoma): 3.23 µM
- GI50 (HOP-92 NSCLC): 1.73 µM
- TGI (HOP-92 NSCLC): 3.17 µM
- GI50 (MALME-3M melanoma): 1.76 µM
- TGI (MALME-3M melanoma): 3.28 µM
- GI50 (IGROV1 ovarian): 1.73 µM
- TGI (IGROV1 ovarian): 3.55 µM
- GI50 (M14 melanoma): 1.69 µM
- TGI (M14 melanoma): 3.09 µM
- GI50 (SF-295 CNS): 1.99 µM
- TGI (SF-295 CNS): 5.41 µM
- GI50 (NCI-H522 lung): 1.56 µM
- TGI (NCI-H522 lung): 3.06 µM
- GI50 (786-0 renal): 1.52 µM
- TGI (786-0 renal): 2.88 µM
- GI50 (PC-3 prostate): 2.56 µM
- TGI (PC-3 prostate): 10.4 µM
- GI50 (ACHN renal): 1.67 µM
- TGI (ACHN renal): 3.04 µM
- GI50 (HS 578T breast): 2.43 µM
- TGI (HS 578T breast): 5.78 µM
- GI50 (MDA-MB-231 breast): 1.46 µM
- TGI (MDA-MB-231 breast): 3.08 µM
- GI50 (OVCAR-8 ovarian): 1.64 µM
- TGI (OVCAR-8 ovarian): 3.28 µM
- GI50 (UACC-257 melanoma): 1.51 µM
- TGI (UACC-257 melanoma): 2.85 µM
- GI50 (KM12 colon): 13 µM
- TGI (KM12 colon): 26.6 µM
- GI50 (MDA-MB-435): 1.72 µM
- TGI (MDA-MB-435): 3.57 µM
- GI50 (OVCAR-5 ovarian): 2.38 µM
- TGI (OVCAR-5 ovarian): 5.79 µM
- GI50 (SNB-75 CNS): 1.94 µM
- TGI (SNB-75 CNS): 5.37 µM
- GI50 (SN12C renal): 1.71 µM
- TGI (SN12C renal): 3.25 µM
- GI50 (CAKI-1 renal): 1.76 µM
- TGI (CAKI-1 renal): 3.15 µM
- GI50 (UO-31 renal): 1.69 µM
- TGI (UO-31 renal): 3.06 µM
- GI50 (T-47D breast): 1.5 µM
- TGI (T-47D breast): 3.62 µM
- GI50 (SK-MEL-2 melanoma): 1.59 µM
- TGI (SK-MEL-2 melanoma): 3.1 µM
- GI50 (DU-145 prostate): 1.84 µM
- TGI (DU-145 prostate): 3.55 µM
- GI50 (TK-10 renal): 2.32 µM
- TGI (TK-10 renal): 3.78 µM
- GI50 (LOX IMVI melanoma): 1.1 µM
- TGI (LOX IMVI melanoma): 2.32 µM
- GI50 (SR leukemia): 0.35 µM
- TGI (SR leukemia): 2.43 µM
